Measured values: the supplement of paper PMC10307832

compound: NC(=O)c1ccc(N(C(N)=O)c2c(F)cccc2F)nc1-c1ccc(F)cc1F [VX-702] + CC(=O)c1c(C)c2cnc(Nc3ccc(N4CCNCC4)cn3)nc2n(C2CCCC2)c1=O [Palbociclib] (partner 0.5 µM); experiment: relative viability (nuclei count vs DMSO), 5 days (fraction); higher = more cells survive; conditions: first compound 0.6325 µM
How it was run: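 Lung cancer cell lines, seeded in 1536-well plates, were treated the following day by pin tool with a single drug or with five library-drug doses (not always all listed) in √10 steps on top of a fixed anchor-drug dose. Cells were fixed and nuclei stained in one step after 5 days, and nuclei were counted. Relative viability is the nuclei count for treated wells divided by that for vehicle wells, reported as medians of duplicate plates.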

Cell Line	relative viability
EMC-BAC-2	0.501
NCI-H2170	0.42
UMC-11	0.336
NCI-H650	0.326
LCLC-103H	0.439
HCC-827	0.446
COR-L 105	0.432
NCI-H2126	0.341
NCI-H647	0.378
LOU-NH91	0.544
HCC-78	0.513
HCC-44	0.955
NCI-H1651	0.502
NCI-H1755	0.453
HOP-62	0.451
PC-14	0.561
NCI-H1650	0.445
ChaGo-K-1	0.893
A-427	0.537
NCI-H1355	0.441
NCI-H1648	0.244
NCI-H1792	0.653

Cell Line	relative viability
HCC-15	0.724
LU99A	0.389
EKVX	0.343
COR-L23	0.323
NCI-H1437	0.319
RERF-LC-KJ	1.14
NCI-H1734	0.323
BEN	0.413
NCI-H460	0.21
H3255	0.318
SK-LU-1	0.382
NCI-H1793	0.314
NCI-H23	0.544
SW 1573	0.32
NCI-H838	0.198
NCI-H2342	0.512
EPLC-272H	0.316
NCI-H3122	0.184
NCI-H1915	0.526
NCI-H727	0.613
NCI-H1975	0.518
LK-2	0.567

Cell Line	relative viability
HCC-366	0.389
NCI-H2087	0.214
LCLC-97TM1	0.195
NCI-H661	0.409
NCI-H2405	0.457
NCI-H1993	0.69
PC-3 [JPC-3]	0.566
NCI-H2009	0.257
NCI-H2347	0.466
NCI-H520	0.191
LXF-289	0.59
NCI-H358	0.134
LC-2-ad	0.525
201T	0.347
NCI-H1666	0.595
NCI-H2023	0.404
NCI-H322M	0.489
HARA	0.226
NCI-H1395	0.654
SK-MES-1	0.293

same assay, conditions: first compound 2 µM

Cell Line	relative viability
ABC-1	0.8
CAL-12T	0.347
NCI-H1944	0.32
NCI-H2085	0.516
NCI-H2228	1.07
NCI-H441	0.162
NCI-H522	1.08
EMC-BAC-2	0.481
NCI-H2170	0.369
UMC-11	0.309
